Data: US20240208954A1, “OXADIAZOLE COMPOUND, PREPARATION METHOD THEREFOR, PHARMACEUTICAL COMPOSITION AND USE THEREOF” (SHANGHAI INSTITUTE OF MATERIA MEDICA, CHINESE ACADEMY OF …, priority 2020, published 2024)
Like-named read-outs stand apart in the source and are kept apart here.

What was measured:
S1PR1 = biological target: T1, S1PR1 (Homo sapiens, UniProt P21453); assay: Agonistic activity test on S1P receptors, FLIPR, CHO-K1/Ga15/EDG1 cells; assay type: cell-based; settings: CHO-K1/Ga15/EDG1 cells, FLIPR agonist mode, read-out: S1PR1 EC50
T1 construct: host or cells: CHO-K1 co-expressing Ga15
Description: (§1) Instrument: FLIPR™ TETRA (Molecular Device)
Experimental materials: CHO-K1/Ga15/EDG1 cells constructed by GenScript autonomously.
(§2) Sample processing: Before the experiment, the working solution with the corresponding concentration was prepared by diluting with GPCR dilution buffer.
(§3) After 18-20 hours, the cell culture plat was taken out and added with dye working solution, and then the plate was placed in a 37° C./5% CO2 incubator for 1 hour, and finally equilibrated at room temperature for 15 minutes. Positive agonist working solution was added, and RFU values were detected and recorded. […] The positive agonist working fluid was added to the cell culture plate at the 21st second. […] The antagonistic mode detection program, the overall detection time of the instrument was 120 seconds, and positive antagonist working solution was added to the cell culture plate at the 21st second.
(§4) Data processing: Raw data were obtained via ScreenWorks (version 3.1) and saved as *FMD files on the Kingsray computer network system. Data were collected and analyzed using Excel and GraphPad Prism 6 software programs. For each well, the average fluorescence intensity value from 1 to 20 seconds was used as the baseline, and the maximum fluorescence intensity value from 21 to 120 seconds minus the minimum fluorescence intensity value from 21 to 120 seconds was the relative fluorescence intensity value (ARFU), from which the percentage activation or inhibition can be calculated based on the following equation.
(§5) % Activation Rate=(ΔRFUCompound-ΔRFUBackground)/(ΔRFUAgonist control-ΔRFUBackground)×100%
(§6) The data was analyzed using GraphPad Prism 6 with a four-parameter equation to calculate the EC50 and IC50 values. The four-parameter equation was as follows: y=Bottom+(Top-Bottom)/(1+10^((LogEC50/IC50-X)*HillSlope)), wherein X is the Log value of the concentration and Y was the inhibition rate.

S1PR3 = S1PR3 (Homo sapiens, UniProt Q99500); assay: Agonistic activity test on S1P receptors, FLIPR; assay type: cell-based; settings: FLIPR agonist mode; read-out: S1PR3 EC50
Description: as §1, §2, §3, §4, §5, §6

S1PR3, sequence (Q99500 whole entry, species assumed): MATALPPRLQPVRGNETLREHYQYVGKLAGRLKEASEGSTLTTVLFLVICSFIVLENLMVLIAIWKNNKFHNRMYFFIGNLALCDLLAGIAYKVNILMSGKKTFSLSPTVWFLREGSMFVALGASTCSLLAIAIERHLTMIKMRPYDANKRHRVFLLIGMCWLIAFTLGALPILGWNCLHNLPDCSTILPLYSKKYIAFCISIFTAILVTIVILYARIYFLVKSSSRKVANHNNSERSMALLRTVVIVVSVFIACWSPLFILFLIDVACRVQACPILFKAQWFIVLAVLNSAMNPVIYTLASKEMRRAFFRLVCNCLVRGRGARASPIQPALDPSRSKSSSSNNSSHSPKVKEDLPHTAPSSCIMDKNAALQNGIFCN
T1 sequence (P21453 whole entry): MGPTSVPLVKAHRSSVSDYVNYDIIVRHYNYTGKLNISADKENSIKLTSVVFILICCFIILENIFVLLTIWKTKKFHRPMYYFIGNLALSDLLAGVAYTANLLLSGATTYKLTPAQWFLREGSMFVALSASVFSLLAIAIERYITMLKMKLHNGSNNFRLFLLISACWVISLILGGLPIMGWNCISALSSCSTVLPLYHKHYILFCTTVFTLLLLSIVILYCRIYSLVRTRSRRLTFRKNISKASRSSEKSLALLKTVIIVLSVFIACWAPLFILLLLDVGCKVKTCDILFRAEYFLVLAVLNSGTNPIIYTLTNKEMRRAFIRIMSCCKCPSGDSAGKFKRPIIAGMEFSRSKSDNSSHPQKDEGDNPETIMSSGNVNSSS

SMILES | EC50 (S1PR1) [µM] | EC50 (S1PR3) [µM] | EC50 (S1PR1; cells printed in μM) [µM]
CC(C)Oc1ccc(-c2nc(-c3ccc(CN4CC(C(=O)O)C4)c4ccccc34)no2)cc1 [Compound A14, 1-((4-(5-(4-isopropoxyphenyl)-1,2,4-oxadiazol-3-yl)naphthalen-1-yl)methyl) azetidine-3-carboxylic acid hydrochloric acid] | 1.67 | > 10 | –
CCCOc1ccc(-c2nc(-c3ccc(CN4CC(C(=O)O)C4)c4ccccc34)no2)cc1 [Compound A17, 1-((4-(5-(4-propoxyphenyl)-1,2,4-oxadiazol-3-yl)naphthalen-1-yl)methyl) azetidine-3-carboxylic acid hydrochloric acid] | – | > 10 | > 10
O=C(O)C1CN(Cc2ccc(-c3noc(-c4ccc(OC(F)(F)F)cc4)n3)c3ccccc23)C1 [Compound A19, 1-((4-(5-(4-(trifluoromethoxy)phenyl)-1,2,4-oxadiazol-3-yl)naphthalen-1-yl)methyl) azetidine-3-carboxylic acid hydrochloric acid] | 1.13 | > 10 | –
CC(C)Oc1ccc(-c2nc(-c3ccc(CN4CC(C(=O)O)C4)c4ccccc34)no2)cc1Br [Compound A11, 1-((4-(5-(3-bromo-4-isopropoxyphenyl)-1,2,4-oxadiazol-3-yl)naphthalen-1-yl)methyl) azetidine-3-carboxylic acid hydrochloric acid] | 1.37 | > 10 | –
O=C(O)C1CN(Cc2ccc(-c3noc(-c4cccnc4)n3)c3ccccc23)C1 [Compound A28, 1-((4-(5-(pyridin-3-yl)-1,2,4-oxadiazol-3-yl)naphthalen-1-yl)methyl) azetidine-3-carboxylic acid hydrochloric acid] | 1.18 | > 10 | –
N#Cc1ccc(-c2nc(-c3ccc(CN4CC(C(=O)O)C4)c4ccccc34)no2)cc1 [Compound A22, 1-((4-(5-(4-cyanophenyl)-1,2,4-oxadiazol-3-yl)naphthalen-1-yl)methyl) azetidine-3-carboxylic acid hydrochloric acid] | 1.13 | > 10 | –
O=C(O)C1CN(Cc2ccc(-c3noc(-c4cccc(F)c4)n3)c3ccccc23)C1 [Compound A25, 1-((4-(5-(3-fluorophenyl)-1,2,4-oxadiazol-3-yl)naphthalen-1-yl)methyl) azetidine-3-carboxylic acid hydrochloric acid] | 1.06 | > 10 | –
O=C(O)C1CN(Cc2ccc(-c3noc(-c4ccc5[nH]ccc5c4)n3)c3ccccc23)C1 [Compound A35, 1-((4-(5-(1H-indole-5-yl)-1,2,4-oxadiazol-3-yl)naphthalen-1-yl)methyl) azetidine-3-carboxylic acid hydrochloric acid] | 1.96 | > 10 | –
COc1ccc(-c2nc(-c3ccc(CN4CC(C(=O)O)C4)c4ccccc34)no2)cc1 [Compound A16, 1-((4-(5-(4-methoxyphenyl)-1,2,4-oxadiazol-3-yl)naphthalen-1-yl)methyl) azetidine-3-carboxylic acid hydrochloric acid] | 1.17 | > 10 | –
O=C(O)C1CN(Cc2ccc(-c3noc(-c4cnc5ccccc5c4)n3)c3ccccc23)C1 [Compound A33, 1-((4-(5-(quinolin-3-yl)-1,2,4-oxadiazol-3-yl)naphthalen-1-yl)methyl) azetidine-3-carboxylic acid hydrochloric acid] | 0.933 | > 10 | –
CC(C)Oc1ccc(-c2nc(-c3ccc(CN4CC(C(=O)O)C4)c4ccccc34)no2)cc1C(F)(F)F [Compound A12, 1-((4-(5-(4-isopropoxy-3-(trifluoromethyl)phenyl)-1,2,4-oxadiazol-3-yl)naphthalen-1-yl)methyl) azetidine-3-carboxylic acid hydrochloric acid] | 0.358 | > 10 | –
Cn1c(-c2nc(-c3ccc(CN4CC(C(=O)O)C4)c4ccccc34)no2)cc2ccccc21 [Compound A37, 1-((4-(5-(1-methyl-1H-indole-2-yl)-1,2,4-oxadiazol-3-yl)naphthalen-1-yl)methyl) azetidine-3-carboxylic acid hydrochloric acid] | – | > 10 | > 10
O=C(O)C1CN(Cc2ccc(-c3noc(-c4ccc5c(c4)OCCO5)n3)c3ccccc23)C1 [Compound A32, 1-((4-(5-(2,3-dihydrobenzo[b][1,4]dioxin-6-yl)-1,2,4-oxadiazol-3-yl)naphthalen-1-yl)methyl) azetidine-3-carboxylic acid hydrochloric acid] | 0.617 | > 10 | –
O=C(O)C1CN(Cc2ccc(-c3noc(-c4ccccc4)n3)c3ccccc23)C1 [Compound A26, 1-((4-(5-phenyl-1,2,4-oxadiazol-3-yl)naphthalen-1-yl)methyl) azetidine-3-carboxylic acid hydrochloric acid] | 0.749 | > 10 | –
O=C(O)C1CN(Cc2ccc(-c3noc(-c4ccc5c(c4)OCO5)n3)c3ccccc23)C1 [Compound A31] | 1.3 | > 10 | –
CC(C)Oc1ccc(-c2nc(-c3ccc(CN4CC(C(=O)O)C4)c4ccccc34)no2)cc1Cl [Compound A10, 1-((4-(5-(3-chloro-4-isopropoxyphenyl)-1,2,4-oxadiazol-3-yl)naphthalen-1-yl)methyl) azetidine-3-carboxylic acid hydrochloric acid] | 0.699 | > 10 | –
O=C(O)C1CN(Cc2ccc(-c3noc(C4CCCCC4)n3)c3ccccc23)C1 [Compound A39, 1-((4-(5-cyclohexyl-1,2,4-oxadiazol-3-yl)naphthalen-1-yl)methyl) azetidine-3-carboxylic acid hydrochloric acid] | 0.831 | > 10 | –
O=C(O)C1CN(Cc2ccc(-c3noc(-c4ccccn4)n3)c3ccccc23)C1 [Compound A29, 1-((4-(5-(pyridin-2-yl)-1,2,4-oxadiazol-3-yl)naphthalen-1-yl)methyl) azetidine-3-carboxylic acid hydrochloric acid] | 0.993 | > 10 | –
CC(C)c1ccc(-c2nc(-c3ccc(CN4CC(C(=O)O)C4)c4ccccc34)no2)cc1 [Compound A20, 1-((4-(5-(4-isopropylphenyl)-1,2,4-oxadiazol-3-yl)naphthalen-1-yl)methyl) azetidine-3-carboxylic acid hydrochloric acid] | 1.05 | > 10 | –
O=C(O)C1CN(Cc2ccc(-c3noc(-c4ccc(F)cc4)n3)c3ccccc23)C1 [Compound A23, 1-((4-(5-(4-fluorophenyl)-1,2,4-oxadiazol-3-yl)naphthalen-1-yl)methyl) azetidine-3-carboxylic acid hydrochloric acid] | 1.96 | > 10 | –
O=C(O)C1CN(Cc2ccc(-c3noc(-c4cnc5ccccc5n4)n3)c3ccccc23)C1 [Compound A34, 1-((4-(5-(quinoxaline-2-yl)-1,2,4-oxadiazol-3-yl)naphthalen-1-yl)methyl) azetidine-3-carboxylic acid hydrochloric acid] | 0.739 | > 10 | –
O=C(O)C1CN(Cc2ccc(-c3noc(/C=C/c4ccccc4)n3)c3ccccc23)C1 [Compound A38, (E)-1-((4-(5-styryl-1,2,4-oxadiazol-3-yl)naphthalen-1-yl)methyl) azetidine-3-carboxylic acid hydrochloric acid] | 1.42 | > 10 | –
O=C(O)C1CN(Cc2ccc(-c3noc(-c4ccncc4)n3)c3ccccc23)C1 [Compound A27, 1-((4-(5-(pyridin-4-yl)-1,2,4-oxadiazol-3-yl)naphthalen-1-yl)methyl) azetidine-3-carboxylic acid hydrochloric acid] | – | > 10 | > 10
CCCc1ccc(-c2nc(-c3ccc(CN4CC(C(=O)O)C4)c4ccccc34)no2)cc1 [Compound A21, 1-((4-(5-(4-propylphenyl)-1,2,4-oxadiazol-3-yl)naphthalen-1-yl)methyl) azetidine-3-carboxylic acid hydrochloric acid] | 1.27 | > 10 | –
O=C(O)C1CN(Cc2ccc(-c3noc(-c4ccc(OCc5ccccc5)cc4)n3)c3ccccc23)C1 [Compound A18, 1-((4-(5-(4-(benzyloxy)phenyl)-1,2,4-oxadiazol-3-yl)naphthalen-1-yl)methyl) azetidine-3-carboxylic acid hydrochloric acid] | – | > 10 | > 10
COc1cc(-c2nc(-c3ccc(CN4CC(C(=O)O)C4)c4ccccc34)no2)ccc1OC(C)C [Compound A13, 1-((4-(5-(4-isopropoxy-3-methoxyphenyl)-1,2,4-oxadiazol-3-yl)naphthalen-1-yl)methyl) azetidine-3-carboxylic acid hydrochloric acid] | 1.55 | > 10 | –
